Source: US20230073777A1, “CYCLIC-AMP RESPONSE ELEMENT BINDING PROTEIN (CBP) AND/OR ADENOVIRAL E1A BINDING PROTEIN OF 300 KDA (P300) DEGRADATION COMPOUNDS AND METHODS OF USE” (CULLGEN (SHANGHAI), INC., priority 2019, published 2023)

Legend:
P300 = P300 (Homo sapiens, UniProt Q09472); test: Immunoblotting of P300 protein levels in LNCaP or 22RV1 cells; assay type: cell-based; parameters: LNCaP or 22RV1 cells that express CBP/P300 proteins were treated with GNE-781 or the bivalent compounds; endogenous in cells; host or cells: LNCaP (clone FGC) or 22RV1 cells; conditions: percentage of inhibition of p300 at 10 nM (Table 3); read-out: Degradation (10 nM)
Procedure, shortened: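 LNCaP or 22RV1 cells treated with compounds for indicated hours, DMSO as negative control. RIPA lysates resolved by SDS-PAGE and immunoblotted for P300 or CBP, tubulin or vinculin as loading control; chemiluminescent bands quantitated.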

LNCaP cells = test: LNCaP cell viability assay (CellTiter-Glo); assay type: cell-based; conditions: Homo sapiens, 72 h; LNCaP prostate cancer cell viability inhibition, 3 days, CellTiter-Glo (Table 3)
Procedure, shortened: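 LNCaP cells, 5000/well, exposed to compounds in 12-point 3-fold serial dilution (top 10 μM) for 3 days. Viability by CellTiter-Glo luminescence, normalized to untreated cells; IC50 by least-squares nonlinear regression.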

P300, sequence (Q09472 whole entry): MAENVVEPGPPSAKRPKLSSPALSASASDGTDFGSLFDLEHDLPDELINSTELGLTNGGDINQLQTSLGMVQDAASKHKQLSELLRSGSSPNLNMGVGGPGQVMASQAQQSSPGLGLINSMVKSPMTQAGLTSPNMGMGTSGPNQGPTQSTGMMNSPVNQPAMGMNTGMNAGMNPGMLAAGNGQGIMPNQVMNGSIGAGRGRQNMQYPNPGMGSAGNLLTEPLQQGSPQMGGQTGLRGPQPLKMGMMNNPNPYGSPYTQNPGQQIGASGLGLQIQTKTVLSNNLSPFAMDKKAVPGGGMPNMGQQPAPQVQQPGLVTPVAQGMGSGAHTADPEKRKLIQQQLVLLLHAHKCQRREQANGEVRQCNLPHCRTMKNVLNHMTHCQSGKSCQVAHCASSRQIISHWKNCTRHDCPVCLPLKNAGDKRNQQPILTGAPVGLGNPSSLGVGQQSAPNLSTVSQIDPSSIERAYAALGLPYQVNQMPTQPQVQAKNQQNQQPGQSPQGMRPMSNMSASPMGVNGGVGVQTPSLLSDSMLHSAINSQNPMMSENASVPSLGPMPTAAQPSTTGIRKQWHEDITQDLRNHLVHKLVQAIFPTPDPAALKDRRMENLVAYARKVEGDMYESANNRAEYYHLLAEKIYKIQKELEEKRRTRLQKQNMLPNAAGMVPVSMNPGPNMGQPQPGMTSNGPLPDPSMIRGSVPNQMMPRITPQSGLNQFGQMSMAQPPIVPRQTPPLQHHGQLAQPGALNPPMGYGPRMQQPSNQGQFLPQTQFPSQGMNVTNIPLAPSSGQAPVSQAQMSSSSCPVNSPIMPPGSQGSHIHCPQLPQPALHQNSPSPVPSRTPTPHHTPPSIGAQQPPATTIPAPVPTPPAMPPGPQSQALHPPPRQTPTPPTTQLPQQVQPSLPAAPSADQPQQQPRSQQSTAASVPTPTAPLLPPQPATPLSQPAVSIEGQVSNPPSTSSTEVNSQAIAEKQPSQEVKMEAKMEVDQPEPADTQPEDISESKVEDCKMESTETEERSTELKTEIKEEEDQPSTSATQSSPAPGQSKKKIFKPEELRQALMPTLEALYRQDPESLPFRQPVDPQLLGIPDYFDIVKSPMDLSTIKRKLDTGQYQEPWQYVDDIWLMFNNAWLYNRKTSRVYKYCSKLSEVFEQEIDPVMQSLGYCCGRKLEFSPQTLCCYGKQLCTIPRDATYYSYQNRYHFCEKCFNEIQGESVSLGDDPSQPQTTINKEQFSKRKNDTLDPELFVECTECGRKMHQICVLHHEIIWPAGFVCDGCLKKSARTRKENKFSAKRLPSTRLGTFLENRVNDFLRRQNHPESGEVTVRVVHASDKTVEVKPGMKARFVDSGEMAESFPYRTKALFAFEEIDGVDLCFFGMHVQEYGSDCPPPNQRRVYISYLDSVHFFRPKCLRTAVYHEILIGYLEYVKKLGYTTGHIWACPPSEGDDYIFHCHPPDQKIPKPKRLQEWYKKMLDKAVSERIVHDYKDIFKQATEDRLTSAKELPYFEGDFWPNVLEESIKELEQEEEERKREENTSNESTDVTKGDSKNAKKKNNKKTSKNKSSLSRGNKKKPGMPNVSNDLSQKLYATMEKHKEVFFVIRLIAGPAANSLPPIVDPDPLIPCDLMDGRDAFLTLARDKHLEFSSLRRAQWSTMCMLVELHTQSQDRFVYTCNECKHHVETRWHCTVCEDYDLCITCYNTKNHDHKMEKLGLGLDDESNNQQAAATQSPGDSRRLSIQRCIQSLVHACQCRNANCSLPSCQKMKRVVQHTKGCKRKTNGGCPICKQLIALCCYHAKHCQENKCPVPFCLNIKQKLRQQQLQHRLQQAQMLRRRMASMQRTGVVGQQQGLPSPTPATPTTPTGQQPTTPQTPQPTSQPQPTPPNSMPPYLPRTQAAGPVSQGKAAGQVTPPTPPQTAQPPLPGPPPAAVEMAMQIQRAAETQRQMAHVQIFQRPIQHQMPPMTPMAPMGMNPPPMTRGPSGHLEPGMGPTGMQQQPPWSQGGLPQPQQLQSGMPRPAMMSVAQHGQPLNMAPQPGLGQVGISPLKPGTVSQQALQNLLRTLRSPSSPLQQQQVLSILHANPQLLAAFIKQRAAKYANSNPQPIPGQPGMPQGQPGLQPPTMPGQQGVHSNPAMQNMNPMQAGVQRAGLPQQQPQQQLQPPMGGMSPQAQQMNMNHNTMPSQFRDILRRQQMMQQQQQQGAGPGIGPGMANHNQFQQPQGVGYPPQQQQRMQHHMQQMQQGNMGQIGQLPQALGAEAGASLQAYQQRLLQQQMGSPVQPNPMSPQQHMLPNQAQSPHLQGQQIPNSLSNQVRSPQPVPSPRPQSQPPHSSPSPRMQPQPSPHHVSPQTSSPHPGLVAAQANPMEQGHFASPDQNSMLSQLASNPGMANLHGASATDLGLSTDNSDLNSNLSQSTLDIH

inhibition at 0.01 µM (P300) | IC50 (LNCaP cells) | Structure (SMILES)
< 20% | 135 nM | CNC(=O)N1CCc2c(c(N3CCCc4cc(-c5cnn(C)c5)c(C(F)F)cc43)nn2C2CCN(C(=O)COCCOCC(=O)N[C@H](C(=O)N3C[C@H](O)C[C@H]3C(=O)NCc3ccc(-c4scnc4C)cc3)C(C)(C)C)CC2)C1 [P-066, 3-(7-(Difluoromethyl)-6-(1-methyl-1H-pyrazol-4-yl)-3,4-dihydroquinolin-1(2H)-yl)-1-(1-(2-(2-(2-(((S)-1-((2S,4R)-4-hydroxy-2-((4-(4-methylthiazol-5-yl)benzyl)carbamoyl)pyrrolidin-1-yl)-3,3-dimethyl-1-oxobutan-2-yl)amino)-2-oxoethoxy)ethoxy)acetyl)piperidin-4-yl)-N-methyl-1,4,6,7-tetrahydro-5H-pyrazolo[4,3-c]pyridine-5-carboxamide]
< 20% | 32 nM | CNC(=O)N1CCc2c(c(N3CCCc4cc(-c5cnn(C)c5)c(C(F)F)cc43)nn2C2CCN(C(=O)CCOCCOCCC(=O)N[C@H](C(=O)N3C[C@H](O)C[C@H]3C(=O)NCc3ccc(-c4scnc4C)cc3)C(C)(C)C)CC2)C1 [P-067, 3-(7-(Difluoromethyl)-6-(1-methyl-1H-pyrazol-4-yl)-3,4-dihydroquinolin-1(2H)-yl)-1-(1-(3-(2-(3-(((S)-1-((2S,4R)-4-hydroxy-2-((4-(4-methylthiazol-5-yl)benzyl)carbamoyl)pyrrolidin-1-yl)-3,3-dimethyl-1-oxobutan-2-yl)amino)-3-oxopropoxy)ethoxy)propanoyl)piperidin-4-yl)-N-methyl-1,4,6,7-tetrahydro-5H-pyrazolo[4,3-c]pyridine-5-carboxamide]
< 20% | 30.8 nM | CNC(=O)N1CCc2c(c(N3CCCc4cc(-c5cnn(C)c5)c(C(F)F)cc43)nn2C2CCN(C(=O)COCCOCCOCC(=O)N[C@H](C(=O)N3C[C@H](O)C[C@H]3C(=O)NCc3ccc(-c4scnc4C)cc3)C(C)(C)C)CC2)C1 [P-068, 3-(7-(Difluoromethyl)-6-(1-methyl-1H-pyrazol-4-yl)-3,4-dihydroquinolin-1(2H)-yl)-1-(1-((S)-13-((2S,4R)-4-hydroxy-2-((4-(4-methylthiazol-5-yl)benzyl)carbamoyl)pyrrolidine-1-carbonyl)-14,14-dimethyl-11-oxo-3,6,9-trioxa-12-azapentadecanoyl)piperidin-4-yl)-N-methyl-1,4,6,7-tetrahydro-5H-pyrazolo[4,3-c]pyridine-5-carboxamide]
< 20% | 36.1 nM | CNC(=O)N1CCc2c(c(N3CCCc4cc(-c5cnn(C)c5)c(C(F)F)cc43)nn2C2CCN(C(=O)CCOCCOCCOCCC(=O)N[C@H](C(=O)N3C[C@H](O)C[C@H]3C(=O)NCc3ccc(-c4scnc4C)cc3)C(C)(C)C)CC2)C1 [P-069, 3-(7-(Difluoromethyl)-6-(1-methyl-1H-pyrazol-4-yl)-3,4-dihydroquinolin-1(2H)-yl)-1-(1-((S)-15-((2S,4R)-4-hydroxy-2-((4-(4-methylthiazol-5-yl)benzyl)carbamoyl)pyrrolidine-1-carbonyl)-16,16-dimethyl-13-oxo-4,7,10-trioxa-14-azaheptadecanoyl)piperidin-4-yl)-N-methyl-1,4,6,7-tetrahydro-5H-pyrazolo[4,3-c]pyridine-5-carboxamide]
< 20% | 31.9 nM | CNC(=O)N1CCc2c(c(N3CCCc4cc(-c5cnn(C)c5)c(C(F)F)cc43)nn2C2CCN(C(=O)CCOCCOCCOCCOCCC(=O)N[C@H](C(=O)N3C[C@H](O)C[C@H]3C(=O)NCc3ccc(-c4scnc4C)cc3)C(C)(C)C)CC2)C1 [P-070, 3-(7-(Difluoromethyl)-6-(1-methyl-1H-pyrazol-4-yl)-3,4-dihydroquinolin-1(2H)-yl)-1-(1-((S)-18-((2S,4R)-4-hydroxy-2-((4-(4-methylthiazol-5-yl)benzyl)carbamoyl)pyrrolidine-1-carbonyl)-19,19-dimethyl-16-oxo-4,7,10,13-tetraoxa-17-azaicosanoyl)piperidin-4-yl)-N-methyl-1,4,6,7-tetrahydro-5H-pyrazolo[4,3-c]pyridine-5-carboxamide]
20 to 50% | 107 nM | CNC(=O)N1CCc2c(c(N3CCCc4cc(-c5cnn(C)c5)c(C(F)F)cc43)nn2C2CCN(C(=O)COCCOCCOCCOCCOCC(=O)N[C@H](C(=O)N3C[C@H](O)C[C@H]3C(=O)NCc3ccc(-c4scnc4C)cc3)C(C)(C)C)CC2)C1 [P-071, 3-(7-(Difluoromethyl)-6-(1-methyl-1H-pyrazol-4-yl)-3,4-dihydroquinolin-1(2H)-yl)-1-(1-((S)-19-((2S,4R)-4-hydroxy-2-((4-(4-methylthiazol-5-yl)benzyl)carbamoyl)pyrrolidine-1-carbonyl)-20,20-dimethyl-17-oxo-3,6,9,12,15-pentaoxa-18-azahenicosanoyl)piperidin-4-yl)-N-methyl-1,4,6,7-tetrahydro-5H-pyrazolo[4,3-c]pyridine-5-carboxamide]
< 20% | 60.7 nM | CNC(=O)N1CCc2c(c(N3CCCc4cc(-c5cnn(C)c5)c(C(F)F)cc43)nn2C2CCN(C(=O)CCOCCOCCOCCOCCOCCC(=O)N[C@H](C(=O)N3C[C@H](O)C[C@H]3C(=O)NCc3ccc(-c4scnc4C)cc3)C(C)(C)C)CC2)C1 [P-072, 3-(7-(Difluoromethyl)-6-(1-methyl-1H-pyrazol-4-yl)-3,4-dihydroquinolin-1(2H)-yl)-1-(1-((S)-21-((2S,4R)-4-hydroxy-2-((4-(4-methylthiazol-5-yl)benzyl)carbamoyl)pyrrolidine-1-carbonyl)-22,22-dimethyl-19-oxo-4,7,10,13,16-pentaoxa-20-azatricosanoyl)piperidin-4-yl)-N-methyl-1,4,6,7-tetrahydro-5H-pyrazolo[4,3-c]pyridine-5-carboxamide]
< 20% | > 10000 nM | CNC(=O)N1CCc2c(c(N3CCCc4cc(-c5cnn(CC(=O)NCCOCC(=O)N[C@H](C(=O)N6C[C@H](O)C[C@H]6C(=O)NCc6ccc(-c7scnc7C)cc6)C(C)(C)C)c5)c(C(F)F)cc43)nn2C2CCOCC2)C1 [P-073, 3-(7-(Difluoromethyl)-6-(1-(2-((2-(2-(((S)-1-((2S,4R)-4-hydroxy-2-((4-(4-methylthiazol-5-yl)benzyl)carbamoyl)pyrrolidin-1-yl)-3,3-dimethyl-1-oxobutan-2-yl)amino)-2-oxoethoxy)ethyl)amino)-2-oxoethyl)-1H-pyrazol-4-yl)-3,4-dihydroquinolin-1(2H)-yl)-N-methyl-1-(tetrahydro-2H-pyran-4-yl)-1,4,6,7-tetrahydro-5H-pyrazolo[4,3-c]pyridine-5-carboxamide]
< 20% | > 10000 nM | CNC(=O)N1CCc2c(c(N3CCCc4cc(-c5cnn(CC(=O)NCCOCCOCCC(=O)N[C@H](C(=O)N6C[C@H](O)C[C@H]6C(=O)NCc6ccc(-c7scnc7C)cc6)C(C)(C)C)c5)c(C(F)F)cc43)nn2C2CCOCC2)C1 [P-075, 3-(7-(Difluoromethyl)-6-(1-((S)-14-((2S,4R)-4-hydroxy-2-((4-(4-methylthiazol-5-yl)benzyl)carbamoyl)pyrrolidine-1-carbonyl)-15,15-dimethyl-2,12-dioxo-6,9-dioxa-3,13-diazahexadecyl)-1H-pyrazol-4-yl)-3,4-dihydroquinolin-1(2H)-yl)-N-methyl-1-(tetrahydro-2H-pyran-4-yl)-1,4,6,7-tetrahydro-5H-pyrazolo[4,3-c]pyridine-5-carboxamide]
< 20% | > 10000 nM | CNC(=O)N1CCc2c(c(N3CCCc4cc(-c5cnn(CC(=O)NCCOCCOCCOCC(=O)N[C@H](C(=O)N6C[C@H](O)C[C@H]6C(=O)NCc6ccc(-c7scnc7C)cc6)C(C)(C)C)c5)c(C(F)F)cc43)nn2C2CCOCC2)C1 [P-076, 3-(7-(Difluoromethyl)-6-(1-((S)-16-((2S,4R)-4-hydroxy-2-((4-(4-methylthiazol-5-yl)benzyl)carbamoyl)pyrrolidine-1-carbonyl)-17,17-dimethyl-2,14-dioxo-6,9,12-trioxa-3,15-diazaoctadecyl)-1H-pyrazol-4-yl)-3,4-dihydroquinolin-1(2H)-yl)-N-methyl-1-(tetrahydro-2H-pyran-4-yl)-1,4,6,7-tetrahydro-5H-pyrazolo[4,3-c]pyridine-5-carboxamide]
< 20% | > 10000 nM | CNC(=O)N1CCc2c(c(N3CCCc4cc(-c5cnn(CC(=O)NCCOCCOCCOCCC(=O)N[C@H](C(=O)N6C[C@H](O)C[C@H]6C(=O)NCc6ccc(-c7scnc7C)cc6)C(C)(C)C)c5)c(C(F)F)cc43)nn2C2CCOCC2)C1 [P-077, 3-(7-(Difluoromethyl)-6-(1-((S)-17-((2S,4R)-4-hydroxy-2-((4-(4-methylthiazol-5-yl)benzyl)carbamoyl)pyrrolidine-1-carbonyl)-18,18-dimethyl-2,15-dioxo-6,9,12-trioxa-3,16-diazanonadecyl)-1H-pyrazol-4-yl)-3,4-dihydroquinolin-1(2H)-yl)-N-methyl-1-(tetrahydro-2H-pyran-4-yl)-1,4,6,7-tetrahydro-5H-pyrazolo[4,3-c]pyridine-5-carboxamide]
